26 molecules from patent publication US5093480A, “Azoxy compounds” (Kowa Company, Ltd., priority 1988, dated 1992) can be followed below.

Data set [1] relates to Trichophyton mentagrophytes. Kind of data set: Minimum inhibitory concentration, agar dilution method, Trichophyton mentagrophytes. The class given is cell-based. The conditions noted are these: Sabouraud's dextrose medium; for MIC: Trichophyton mentagrophytes. The procedure:
(§1) The minimum inhibitory concentrations (μg/ml), relative to test fungi, of some of the typical compounds in this invention produced in Examples to be described later were measured, and the results are tabulated below.
(§2) *The minimum inhibitory concentrations were measured by an agar dilution
(§3) method using a Sabouraud's dextrose medium in accordance with a standard
(§4) method of Nippon Kagaku Ryoho Gakkai (Chemical Therapy Academy).
A general note: Agar dilution tests growth on a series of plates holding different concentrations.

In the next data set the test system is Cystococcus neoformans. Description: Minimum inhibitory concentration, agar dilution method, Cystococcus neoformans. It is filed as cell-based. As to conditions: Sabouraud's dextrose medium. The procedure:
as §1, §2, §3, §4

In a further data set the test system is Trichophyton rubrus. Kind of data set: Minimum inhibitory concentration, agar dilution method, Trichophyton rubrus. It is filed as cell-based. The conditions noted are these: Sabouraud's dextrose medium; for MIC: Trichophyton. The method, then: as §1, §2, §3, §4
Another data set relates to Candida albicans. Kind of data set: Minimum inhibitory concentration, agar dilution method, Candida albicans. It is filed as cell-based. As to conditions: Sabouraud's dextrose medium; for MIC: Candida albicans. The method, then:
as §1, §2, §3, §4

Data set [2] is described as follows: Stability in serum (thin layer chromatography and biological verification using Candida albicans). It is filed as in vitro ADME. As to conditions: left to stand in serum at 37° C. for 4 hours; TLC and biological verification using Candida albicans.
The nature of the next data set: Acute toxicity to mice. The conditions noted are these: mouse, in vivo, intravenous administration. The procedure: The compound in this invention is low in toxicity. For example, acute toxicities LD50 to mice of the compounds in Examples 1 and 4 to be described later are both more than 100 mg/kg (intravenous administration).

Values after ≈ are worked out from the molar mass of the structure shown.

For the molecule “2-(2,4-dichlorodiphenylacetylhydrazono)-2-dioxo-KA-7367A [Example 79]”, the “Minimum inhibitory concentration, Trichophyton mentagrophytes” value in data set [1] turned out to be 3.1 µg/mL. In the data set on Cystococcus neoformans, the “Minimum inhibitory concentration, Cystococcus neoformans” value was found to be 6.25 µg/mL. The “Minimum inhibitory concentration, Trichophyton rubrus” value in the data set on Trichophyton rubrus worked out at 1.6 µg/mL. In the data set with Candida albicans, the “Minimum inhibitory concentration, Candida albicans” value amounted to 1.6 µg/mL.
As a reminder, the MIC is the smallest concentration in the dilution series that meets the test's criterion for growth inhibition. The low end stands for inhibition by little substance, the high end for a need for much substance. On to `CCCC/C=C/[N+]([O-])=NC(C)C(C)=NOC(=O)c1ccccc1` (stereo not shown) [Example 25, 2-benzoyloxyimino-2-deoxo-KA-7367A], for which the MIC is 12.5 µg/mL (≈ 39.4 µM) in data set [1], 50 µg/mL (≈ 158 µM) with Cystococcus neoformans, 3.1 µg/mL (≈ 9.77 µM) against Trichophyton rubrus and 50 µg/mL (≈ 158 µM) in the data set on Candida albicans.
On to `CCCC/C=C/[N+]([O-])=NC(C)C(C)=NNC(=O)c1cccnc1` (stereo not shown) [Example 71, 2-nicotinoylhydrazono-2-deoxo-KA-7367A], for which the MIC came out at 6.25 µg/mL (≈ 19.7 µM) in data set [1], 12.5 µg/mL (≈ 39.4 µM) with Cystococcus neoformans, 6.25 µg/mL (≈ 19.7 µM) in the data set on Trichophyton rubrus and 6.25 µg/mL (≈ 19.7 µM) with Candida albicans.
`CCCC/C=C/[N+]([O-])=NC(C)C(C)=NNC(N)=O` (stereo not shown) [Example 34, 2-semicarbazono-2-deoxo-KA-7367A]: the MIC in data set [1] worked out at 3.1 µg/mL (≈ 12.1 µM); with Cystococcus neoformans it was 3.1 µg/mL (≈ 12.1 µM); against Trichophyton rubrus it was 1.6 µg/mL (≈ 6.27 µM); with Candida albicans it was 3.1 µg/mL (≈ 12.1 µM).
Regarding `CCCC/C=C/[N+]([O-])=NC(C)C(C)=NNC(=O)Cn1ccnc1` (stereo not shown) [Example 47, 2-(1-imidazolylacetylhydrazono)-2-deoxo-KA-7367A], the MIC in data set [1] was found to be 25 µg/mL (≈ 78 µM); in the data set with Cystococcus neoformans it was 50 µg/mL (≈ 156 µM); against Trichophyton rubrus, 12.5 µg/mL (≈ 39 µM); in the data set on Candida albicans it was 6.25 µg/mL (≈ 19.5 µM).
Turning to “2-thenoylhydrazono-2-deoxo-KA-7367A [Example 68]”, the “Minimum inhibitory concentration, Trichophyton mentagrophytes” value in data set [1] worked out at 6.25 µg/mL. For the same molecule, in the data set with Cystococcus neoformans, the “Minimum inhibitory concentration, Cystococcus neoformans” value was 6.25 µg/mL. Further, in the data set on Trichophyton rubrus, the “Minimum inhibitory concentration, Trichophyton rubrus” value stood at 6.25 µg/mL. The “Minimum inhibitory concentration, Candida albicans” value in the data set on Candida albicans is 3.2 µg/mL.
Consider `CCCC/C=C/[N+]([O-])=NC(C)C(C)=O` (stereo not shown) [KA-7367A], for which the decomposition in serum entry in data set [2] is given as “almost decomposed”.
One may read the LD50 as the dose at which mortality reaches 50%. In the case of `CCCC/C=C/[N+]([O-])=NC(C)C(C)=NOCC(=O)O` (stereo not shown) [Example 4, 2-carboxymethoxyimino-2-deoxo-KA-7367A], the LD50 in the data set “Acute toxicity to mice” was greater than 100 mg/kg. The MIC in data set [1] was 12.5 µg/mL (≈ 46.1 µM); against Cystococcus neoformans, 25 µg/mL (≈ 92.1 µM); in the data set with Trichophyton rubrus, 3.1 µg/mL (≈ 11.4 µM); in the data set on Candida albicans, 12.5 µg/mL (≈ 46.1 µM).
With `CCCC/C=C/[N+]([O-])=NC(C)C(C)=NNC(=O)Cc1ccc(Cl)cc1Cl` (stereo not shown) [Example 49, 2-(2,4-dichlorophenylacetylhydrzono)-2-deoxo-KA-7367A], the MIC was 3.1 µg/mL (≈ 7.76 µM) in data set [1], 6.25 µg/mL (≈ 15.7 µM) against Cystococcus neoformans, 1.6 µg/mL (≈ 4.01 µM) against Trichophyton rubrus and 1.6 µg/mL (≈ 4.01 µM) with Candida albicans.
`CCCC/C=C/[N+]([O-])=NC(C)C(C)=NNC(=O)Cc1c(F)cccc1F` (stereo not shown) [Example 61, 2-[(2,6-difluorophenyl)acetylhydrazono]-2-deoxo-KA-7367A]: the MIC worked out at 3.1 µg/mL (≈ 8.46 µM) in data set [1], 6.25 µg/mL (≈ 17.1 µM) in the data set with Cystococcus neoformans, 1.6 µg/mL (≈ 4.37 µM) with Trichophyton rubrus and 0.8 µg/mL (≈ 2.18 µM) against Candida albicans.
For `CCCC/C=C/[N+]([O-])=NC(C)C(C)=NOC(=O)c1ccc(Cl)cc1` (stereo not shown) [Example 27, 2-(p-chlorobenzoyloxyimino)-2-deoxo-KA-7367A], in that order: 12.5 µg/mL (≈ 35.5 µM), 100 µg/mL (≈ 284 µM), 6.25 µg/mL (≈ 17.8 µM) and 100 µg/mL (≈ 284 µM).
For `CCCC/C=C/[N+]([O-])=NC(C)C(C)=NNC(=O)C(c1ccc(Cl)cc1)c1ccccc1Cl` (stereo not shown) [Example 78, 2-(2,4'-dichlorodiphenylacetylhydrazono)-2-deoxo-KA-7367A], in that order: 3.1 µg/mL (≈ 6.52 µM), 6.25 µg/mL (≈ 13.1 µM), 3.1 µg/mL (≈ 6.52 µM) and 0.8 µg/mL (≈ 1.68 µM).
With `CCCC/C=C/[N+]([O-])=NC(C)C(C)=NOCCOCC` (stereo not shown) [Example 3, 2-(2-ethoxy-ethoxyimino)-2-dioxo-KA-7367A], the MIC in data set [1] amounted to 25 µg/mL (≈ 87.6 µM); in the data set on Cystococcus neoformans it was 50 µg/mL (≈ 175 µM); in the data set with Trichophyton rubrus, 6.25 µg/mL (≈ 21.9 µM); with Candida albicans it was 25 µg/mL (≈ 87.6 µM).
Turning to `CCCC/C=C/[N+]([O-])=NC(C)C(C)=NNC(C)=O` (stereo not shown) [Example 43, 2-acetylhydrazono-2-deoxo-KA-7367A], the MIC in data set [1] was determined as 6.25 µg/mL (≈ 24.6 µM); with Cystococcus neoformans, 3.1 µg/mL (≈ 12.2 µM); with Trichophyton rubrus it was 3.1 µg/mL (≈ 12.2 µM); in the data set on Candida albicans, 1.6 µg/mL (≈ 6.29 µM).
With `CCCC/C=C/[N+]([O-])=NC(C)C(C)=NNC(=O)Cc1c(OC)cccc1OC` (stereo not shown) [Example 62, 2-[(2,6-dimethoxyphenyl)acetylhydrazono]-2-deoxo-KA-7367A], the MIC in data set [1] worked out at 6.25 µg/mL (≈ 16 µM); in the data set with Cystococcus neoformans, 12.5 µg/mL (≈ 32 µM); against Trichophyton rubrus, 3.1 µg/mL (≈ 7.94 µM); against Candida albicans it was 1.6 µg/mL (≈ 4.1 µM).
Take `CCCC/C=C/[N+]([O-])=NC(C)C(C)=NNC(=O)Cc1cccnc1` (stereo not shown) [Example 48, 2-(3-pyridylacetylhydrazono)-2-deoxo-KA-7367A]: the MIC in data set [1] was found to be 3.1 µg/mL (≈ 9.35 µM); in the data set on Cystococcus neoformans, 6.25 µg/mL (≈ 18.9 µM); with Trichophyton rubrus, 1.6 µg/mL (≈ 4.83 µM); in the data set with Candida albicans, 1.6 µg/mL (≈ 4.83 µM).
Consider `CCCC/C=C/[N+]([O-])=NC(C)C(C)=NNC(=O)c1ccncc1` (stereo not shown) [Example 70, 2-isonicotinoylhydrazono-2-deoxo-KA-7367A], for which the MIC in data set [1] was found to be 25 µg/mL (≈ 78.8 µM); in the data set on Cystococcus neoformans, 50 µg/mL (≈ 158 µM); with Trichophyton rubrus it was 12.5 µg/mL (≈ 39.4 µM); against Candida albicans it was 25 µg/mL (≈ 78.8 µM).
On to `CCCC/C=C/[N+]([O-])=NC(C)C(C)=NNC(=O)CN1CCN(C(=O)Cc2c(Cl)cccc2Cl)CC1` (stereo not shown) [Example 54, 2-[4-(2,6-dichlorophenylacetyl)-1-piperazinylacetylhydrazino]-2-deoxo-KA-7367A], for which the MIC in data set [1] came out at 6.25 µg/mL (≈ 11.9 µM); against Cystococcus neoformans, 12.5 µg/mL (≈ 23.8 µM); in the data set with Trichophyton rubrus, 3.1 µg/mL (≈ 5.9 µM); in the data set on Candida albicans, 3.1 µg/mL (≈ 5.9 µM).
In the case of `CCCC/C=C/[N+]([O-])=NC(C)C(C)=NNC(N)=S` (stereo not shown) [Example 35, 2-thiosemicarbazono-2-deoxo-KA-7367A], the MIC in data set [1] worked out at 6.25 µg/mL (≈ 23 µM); with Cystococcus neoformans it was 6.25 µg/mL (≈ 23 µM); against Trichophyton rubrus, 3.1 µg/mL (≈ 11.4 µM); in the data set with Candida albicans, 3.1 µg/mL (≈ 11.4 µM).
As to `CCCC/C=C/[N+]([O-])=NC(C)C(C)=NNC(=O)CN1CCN(C(C)=O)CC1` (stereo not shown) [Example 53, 2-(4-acetylpiperazinyl-acetylhydrazono)-2-deoxo-KA-7367A], the MIC in data set [1] was 6.25 µg/mL (≈ 16.4 µM); against Cystococcus neoformans, 12.5 µg/mL (≈ 32.9 µM); against Trichophyton rubrus, 3.1 µg/mL (≈ 8.15 µM); against Candida albicans, 3.1 µg/mL (≈ 8.15 µM).
Turning to `CCCC/C=C/[N+]([O-])=NC(C)C(C)=NO` (stereo not shown) [Example 1, 2-hydroxyimino-2-deoxo-KA-7367A], the LD50 in “Acute toxicity to mice” is greater than 100 mg/kg. Also, the MIC in data set [1] amounted to 12.5 µg/mL (≈ 58.6 µM); with Cystococcus neoformans, 25 µg/mL (≈ 117 µM); against Trichophyton rubrus, 3.1 µg/mL (≈ 14.5 µM); with Candida albicans it was 12.5 µg/mL (≈ 58.6 µM).
In the case of `CCCC/C=C/[N+]([O-])=NC(C)C(C)=NNC(=O)Cc1ccc(Cl)cc1` (stereo not shown) [Example 74, 2-(p-chlorophenylacetylhydrazono)-2-deoxo-KA-7367A], the MIC in data set [1] came out at 6.25 µg/mL (≈ 17.1 µM); against Cystococcus neoformans it was 6.25 µg/mL (≈ 17.1 µM); with Trichophyton rubrus, 3.1 µg/mL (≈ 8.5 µM); against Candida albicans, 1.6 µg/mL (≈ 4.39 µM).
As to `CCCC/C=C/[N+]([O-])=NC(C)C(C)=NNC(=O)Cc1cccc2ccccc12` (stereo not drawn) [Example 52, 2-(alpha-naphthylacetylhydrazono)-2-deoxo-KA-7367A], the MIC in data set [1] was determined as 6.25 µg/mL (≈ 16.4 µM); against Cystococcus neoformans, 12.5 µg/mL (≈ 32.9 µM); in the data set on Trichophyton rubrus, 3.1 µg/mL (≈ 8.15 µM); in the data set with Candida albicans it was 3.1 µg/mL (≈ 8.15 µM).
`CCCC/C=C/[N+]([O-])=NC(C)C(C)=NOC(C)(C)C(=O)O` (stereo not shown) [Example 5, 2-(1-carboxy-1-ethylmethoxyimino)-2-deoxo-KA-7367A]: the MIC in data set [1] was found to be 12.5 µg/mL (≈ 41.8 µM); against Cystococcus neoformans, 25 µg/mL (≈ 83.5 µM); in the data set with Trichophyton rubrus, 3.1 µg/mL (≈ 10.4 µM); with Candida albicans, 12.5 µg/mL (≈ 41.8 µM).
Regarding `CCCC/C=C/[N+]([O-])=NC(C)C(C)=NOC(C)=O` (stereo not shown) [Example 24, 2-acetoxyimino-2-deoxo-KA-7367A], the MIC is 12.5 µg/mL (≈ 49 µM) in data set [1], 50 µg/mL (≈ 196 µM) in the data set with Cystococcus neoformans, 6.25 µg/mL (≈ 24.5 µM) against Trichophyton rubrus and 25 µg/mL (≈ 97.9 µM) against Candida albicans.
With `CCCC/C=C/[N+]([O-])=NC(C)C(C)=NNC(=O)c1ccco1` (stereo not shown) [Example 67, 2-(2-furylcarbonylhydrazono)-2-deoxo-KA-7367A], the MIC was determined as 3.1 µg/mL (≈ 10.1 µM) in data set [1], 6.25 µg/mL (≈ 20.4 µM) in the data set with Cystococcus neoformans, 3.1 µg/mL (≈ 10.1 µM) in the data set on Trichophyton rubrus and 1.6 µg/mL (≈ 5.22 µM) in the data set on Candida albicans.
